Here are results for twelve compounds from ChEMBL document CHEMBL1275370, “The binding of β-d-glucopyranosyl-thiosemicarbazone derivatives to glycogen phosphorylase: A new class of inhibitors” (Bioorg Med Chem, 2010).

As a reminder, the IC50 is the midpoint of a concentration-inhibition curve. A low value points to greater potency in that assay.

SMILES strings stand for the structures.

The target of this experiment is T1, Glycogen phosphorylase, muscle form (Oryctolagus cuniculus, UniProt P00489).
T1 sequence (P00489 whole entry): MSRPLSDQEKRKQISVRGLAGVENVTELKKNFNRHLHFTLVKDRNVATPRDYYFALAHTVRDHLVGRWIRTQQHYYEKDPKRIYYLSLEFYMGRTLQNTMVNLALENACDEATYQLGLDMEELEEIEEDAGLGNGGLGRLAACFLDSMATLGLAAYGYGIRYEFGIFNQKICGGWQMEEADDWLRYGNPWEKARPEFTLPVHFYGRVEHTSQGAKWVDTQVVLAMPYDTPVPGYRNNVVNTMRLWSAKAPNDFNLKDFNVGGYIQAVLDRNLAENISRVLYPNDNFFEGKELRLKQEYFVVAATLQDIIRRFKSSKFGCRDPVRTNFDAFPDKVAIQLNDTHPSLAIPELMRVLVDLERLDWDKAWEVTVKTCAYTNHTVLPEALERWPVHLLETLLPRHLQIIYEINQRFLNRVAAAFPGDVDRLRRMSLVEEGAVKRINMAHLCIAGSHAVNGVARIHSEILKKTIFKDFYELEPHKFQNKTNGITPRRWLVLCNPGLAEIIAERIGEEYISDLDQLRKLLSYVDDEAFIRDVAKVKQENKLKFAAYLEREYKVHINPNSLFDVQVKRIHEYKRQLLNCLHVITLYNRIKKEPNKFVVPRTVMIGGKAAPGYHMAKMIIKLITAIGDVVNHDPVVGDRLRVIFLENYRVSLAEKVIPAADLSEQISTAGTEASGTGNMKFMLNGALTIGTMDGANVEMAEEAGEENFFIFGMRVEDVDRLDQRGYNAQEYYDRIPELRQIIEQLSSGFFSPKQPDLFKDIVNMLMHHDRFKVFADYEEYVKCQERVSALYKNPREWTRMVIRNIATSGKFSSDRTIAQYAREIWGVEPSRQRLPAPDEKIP
Description: Inhibition of rabbit skeletal muscle glycogen phosphorylase b
In turn, `CC[C@H]1O[C@@H](NC(=S)N/N=C/c2cccc(O)c2)[C@H](O)[C@@H](O)[C@@H]1O` yielded an IC50 of 180 µM.
On to `CC[C@H]1O[C@@H](NC(=S)N/N=C/c2ccccc2O)[C@H](O)[C@@H](O)[C@@H]1O`, for which the IC50 amounted to 26.6 µM.
`CC[C@H]1O[C@@H](NC(=S)N/N=C/c2ccc(O)cc2)[C@H](O)[C@@H](O)[C@@H]1O` gave an IC50 of 340 µM.
The compound `CC[C@H]1O[C@@H](NC(=S)N/N=C/c2ccc(C)cc2)[C@H](O)[C@@H](O)[C@@H]1O` showed an IC50 of 192 µM. This IC50 lies about 1.8-fold lower than the previous one.
As to `CC[C@H]1O[C@@H](NC(=S)N/N=C/c2cccc(Cl)c2)[C@H](O)[C@@H](O)[C@@H]1O`, the IC50 worked out at 23.2 µM. Against the preceding compound, the IC50 is about 8.3-fold lower.
The value for `CC[C@H]1O[C@@H](NC(=S)N/N=C/c2ccc(Br)cc2)[C@H](O)[C@@H](O)[C@@H]1O` was 93.2 µM; that for `CC[C@H]1O[C@@H](NC(=S)N/N=C/c2ccc(OC)cc2)[C@H](O)[C@@H](O)[C@@H]1O` was 406 µM; that for `CC[C@H]1O[C@@H](NC(=S)N/N=C/c2ccncc2)[C@H](O)[C@@H](O)[C@@H]1O` was 200 µM.
`CC[C@H]1O[C@@H](NC(=S)N/N=C/c2ccc([N+](=O)[O-])cc2)[C@H](O)[C@@H](O)[C@@H]1O` registered an IC50 of 25.7 µM.
Take `CC[C@H]1O[C@@H](NC(=S)N/N=C/c2ccccc2[N+](=O)[O-])[C@H](O)[C@@H](O)[C@@H]1O`: the IC50 turned out to be 484 µM.
For the compound `CC[C@H]1O[C@@H](NC(=S)N/N=C/c2ccc(C(F)(F)F)cc2)[C@H](O)[C@@H](O)[C@@H]1O`, the IC50 was determined as 524 µM.
Regarding `CC[C@H]1O[C@@H](NC(=S)N/N=C/c2ccccc2Cl)[C@H](O)[C@@H](O)[C@@H]1O`, the IC50 came to 370 µM.
